The species entered for test [1] is Mus musculus. The test can be described thus: Induction of proliferation of mouse Shionogi cells at 10 pM. Type of test: functional.
The species entered for test [2] is Mus musculus. The test can be described thus: Inhibition of 5-alpha-dihydrotestosterone-stimulated growth of mouse Shionogi cells at 1 uM. It counts as functional.

Calls of active or inactive are those of the source. The calls are words filed in the database; no cut-off is given here.

As to `C[C@]12CCC(=O)C[C@@H]1CC[C@@H]1[C@@H]2CC[C@]2(CCOCc3cc(F)cc(F)c3)[C@@H](O)CC[C@@H]12`, the outcome in the test listed under Mus musculus [1] was Active. The outcome in the test filed under Mus musculus [2] was inactive. In the case of `C[C@]12CCC(=O)C[C@@H]1CC[C@@H]1[C@@H]2CC[C@]2(C)[C@@H](O)CC[C@@H]12`, the result in the test filed under Mus musculus [1] was Active.

Values taken from ChEMBL document CHEMBL1156504, “Structural characterization of the human androgen receptor ligand-binding domain complexed with EM5744, a rationally designed steroidal ligand bearing a bulky chain directed toward helix 12” (J Biol Chem, 2007).
